Series [1] relates to OSCCs. The series is described as follows: Cell count of viable cells (Trypan Blue, light microscope). The conditions noted are these: WIN 55,212-2 10-100 μM, 24 hours. The class given is cell-based, human. An excerpt: The number of viable cells was counted under light microscope using Trypan Blue staining. Compiled data from three independent experiments performed as shown.
(§1) The number of viable cells was counted under light microscope using Trypan Blue staining (Sigma, MO, USA).

The test system of series [2] is MP2 tumor cells. Described as above. It counts as cell-based, human. The following applies: different concentrations of WIN 55,212-2, 24-48 hours.
Excerpt: The number of viable cells was counted under light microscope using Trypan Blue staining. Compiled data from three experiments performed is shown.
as §1

In series [3] the test system is PL-12 tumor cells. The series can be described thus: Microscopy of morphology and viability. It counts as cell-based, human. The conditions noted are these: different concentrations of WIN 55,212-2, 24 hours. The protocol:
(§2) MP2 and PL-12 tumor cells were treated with CDDP (50 μg/mL) and different concentrations of WIN 55,212-2 for 24 hours before the microscopic images were taken. Scale bar=50 μm.

Series [4] relates to MP2 tumor cells. The series can be described thus: Microscopy of morphology and viability. The conditions noted are these: different concentrations of WIN 55,212-2, 24 hours. The class given is cell-based, human. On the procedure: as §2
Series [5] relates to NK cells. The series is described as follows: NK cell cytotoxicity in humanized BLT mice (4-hr Chromium release assay). The conditions noted are these: hu-BLT mice, every 2 days for 3 weeks; WIN 55,212-2 2 mg/kg IP; IL-15 5 μg/mice IP; preliminary experiments. It counts as in vivo. On the procedure:
Humanized BLT mice (hu-BLT; human-bone marrow/liver/thymus) were fed with, AJ2 (5×10^9 CFU/mice, every 2 days, Oral administration), WIN 55,212-2 (2 mg/kg, every 2 days, IP) and/or IL-15 (5 μg/mice, every 2 days, IP). After 3 weeks of treatment, immune cells were collected from peripheral blood, bone marrow and spleen, and CD3+ T cells were isolated from splenocytes with EasySep™ Human CD3 positive selection kit II (StemCell Tech.). PBMCs (0.5×10^6 cells) obtained from the peripheral blood were treated with IL-2 (1000 U/ml) and/or anti-CD16 antibody (BioLegend) (3 μg/ml) for 3 days, after which the cells were counted and different numbers of E:T ratios were used for the assessment of cytotoxicity using 4-hr Chromium release assay (FIG. 1A and FIG. 1B). The percentage specific cytotoxicity was calculated using the following formula (% cytotoxicity=(Experimental cpm/spontaneous cpm)/(total cpm−spontaneous cpm)) and the lytic unit 30 (Lu30/10^6) was calculated by using the inverse of the number of effector cells needed to lyse 30% of tumor target cells×100. Killing per % NK cells was determined by dividing the total Lytic unit 30 by the percentage of NK cells in each sample (FIG. 1A and FIG. 1B). […]

The test system of series [6] is OSCCs.
Series [7] has as its system MP2 tumor cells. The series can be described thus: Cell death assay (PI staining, flow cytometry). It counts as cell-based, human. The following applies: 25-100 μM, 24-48 hours. On the procedure: PI staining was used to determine the cell death by flow cytometry. One of two representative experiments is shown in (FIG. 4A) and the compiled data of paired MP2 and PL-12 at the same concentration of WIN 55,212-2 treatment is shown in (FIG. 4B). […] Two experiments were compiled and the % cell death of various WIN 55-212,2 concentration (10, 25, 50 and 100 μM) was compared to the untreated control for both PL12 (FIG. 4C) and MP2 (FIG. 4D). […] Non-linear regression was used to fit the curve of the % cell death induced by WIN 55-212,2 in various concentrations (10, 25, 50 and 100 μM) for both PL12 and MP2 (FIG. 4E).
PI staining was used to determine the cell death by flow cytometry. Compiled data from two experiments is shown.
(In flow cytometry, cells or beads pass a laser one at a time.)

Series [8] relates to tumors. The conditions noted are these: cited from earlier work.
Series [9] has as its system MP2 tumor cells.
Series [10] concerns PL-12 tumor cells. The conditions noted are these: 48 h, 25-100 μM.
[11] abbreviates: vs untreated controls, 24 hours, up to 50 μM.

These results are taken from patent US20250332180A1, “CANNABINOIDS AND IL-15 ACTIVATE NK CELLS” (The Regents of the University of California, priority 2022, published 2025).

With `CS(=O)(=O)O.Cc1c(C(=O)c2cccc3ccccc23)c2cccc3c2n1[C@H](CN1CCOCC1)CO3` [WIN 55,212-2, (R)-(+)-[2,3-Dihydro-5-methyl-3-(4-morpholinylmethyl)pyrrolo[1,2,3-de]-1,4-benzoxazin-6-yl]-1-naphthalenylmethanone mesylate], in [1], the “decrease in cell numbers” value is reported as 10-25%. Moreover, the “decreased numbers of viable cells” value in [2] was 60-85%. Besides, the morphology and viability result in [3] is “maintained their morphology and remained viable”; in series [4] it was “largely lost their shape and morphology”. The “cytotoxic function of NK cells in PBMC” value in series [5] is “increased the cytotoxic function of NK cells”. Also, in series [6] (after WIN 55,212-2 treatment), the “decrease in cell surface MHC class I expression, OSCCs compared with OSCSCs” value is recorded as “Significantly greater decrease”. For the same molecule, the “cell surface expression of CD44” value in [6] (setting [11]) is “Decreased expression”; in [9] (48 h, 25-100 μM), “Decreased cell surface expression”; in [10] it was “Decreased cell surface expression”. Moreover, the “cell surface expression of CD54” value in series [6] (setting [11]) is “Decreased expression”; in [9] (48 h, 25-100 μM), “decreased the expression”; in series [10] it was “decreased the expression”. Further, the “cell surface expression of MHC class I” value is recorded as “Decreased expression” in series [6] (setting [11]); “decreased on MP2 tumor cells” in series [9] (48 h, 25-100 μM); “increased on PL-12 tumor cells” in series [10]. Moreover, the “cell surface expression of PD-L1” value in [6] (setting [11]) is “Decreased expression”; in series [9] (48 h, 25-100 μM), “decreased in MP2 tumor cells”; in series [10], “increased in PL-12”. In series [7], the “percentages of dead cells (PI staining)” value was “approximately 30%”. In addition, the “migration and invasion of tumors” value in series [8] (previously reported in several studies) is “inhibiting”. For the same molecule, in series [8] (previously reported), the “anti-tumor effect, mechanism” value was “inducing caspase-independent apoptosis”. Besides, in [9] (after WIN 55,212-2 treatments), the “extent of decrease in all surface receptor expressions, MP2 compared with PL-12” value is on record as “significantly greater”.
